Laboratory results from BindingDB's records for doi:10.1016/j.bioorg.2015.12.005 (Birla Institute of Technology, 2016).

Biological target: Reverse transcriptase protein (Human immunodeficiency virus 1, UniProt Q9WJQ1)
Experiment: In-vitro HIV-1 RT Screening
Procedure: The reaction mixture was set with template primer complex, RT enzyme and dNTPs in a lysis buffer with or without inhibitors. The reaction mixture was incubated at 37 °C for 1 h and then transferred to streptavidine-coated microtitre plate (MTP). The biotin-labeled dNTPs that were incorporated in the template due to activity of RT, bound to streptavidine. The unbound dNTPs were washed using wash buffer and anti-DIG-POD was added to the MTP. The DIG-labeled dNTPs incorporated in the template were bound to an anti-DIG-POD antibody. The unbound anti-DIG-POD was washed again with washing buffer and the peroxide substrate (ABST) was added to the MTP. A colored reaction product was produced during the cleavage of the substrate catalyzed by a peroxide enzyme.

| SMILES | IC50 [µM] |
| --- | --- |
| O=C(Nc1ccccc1F)OC(CN1CCCc2ccccc21)c1ccc(Cl)cc1 (configuration not stated) [1-(4-chlorophenyl)-2-(3,4-dihydroquinolin-1(2H)-yl)ethyl 2-fluorophenylcarbamate (6e)] | 90.3 |
| O=C(Nc1cccc(F)c1)OC(CN1CCCc2ccccc21)c1ccc(Cl)cc1 (configuration not stated) [1-(4-chlorophenyl)-2-(3,4-dihydroquinolin-1(2H)-yl)ethyl 3-fluorophenylcarbamate (6f)] | 72.1 |
| O=C(Nc1cccc([N+](=O)[O-])c1)OC(CN1CCCc2ccccc21)c1ccc(Cl)cc1 (configuration not stated) [1-(4-chlorophenyl)-2-(3,4-dihydroquinolin-1(2H)-yl)ethyl 3-nitrophenylcarbamate (6i)] | 14.9 |
| O=C(Nc1ccc(Cl)cc1)OC(CN1CCCc2ccccc21)c1ccc(Cl)cc1 (configuration not stated) [1-(4-chlorophenyl)-2-(3,4-dihydroquinolin-1(2H)-yl)ethyl 4-chlorophenylcarbamate (6h)] | 23.8 |
| O=C(Nc1ccc(F)cc1)OC(CN1CCCc2ccccc21)c1ccc(Cl)cc1 (configuration not stated) [1-(4-chlorophenyl)-2-(3,4-dihydroquinolin-1(2H)-yl)ethyl 4-fluorophenylcarbamate (6g)] | 48.6 |

Continued, values first:

| IC50 [µM] | SMILES |
| --- | --- |
| 5.42 | O=C(Nc1ccc([N+](=O)[O-])cc1)OC(CN1CCCc2ccccc21)c1ccc(Cl)cc1 (configuration not stated) [1-(4-chlorophenyl)-2-(3,4-dihydroquinolin-1(2H)-yl)ethyl 4-nitrophenylcarbamate (6j)] |
| 68.3 | Cc1cccc(NC(=O)OC(CN2CCCc3ccccc32)c2ccc(Cl)cc2)c1 (configuration not stated) [1-(4-chlorophenyl)-2-(3,4-dihydroquinolin-1(2H)-yl)ethyl m-tolylcarbamate (6c)] |
| 8.12 | Cc1ccccc1NC(=O)OC(CN1CCCc2ccccc21)c1ccc(Cl)cc1 (configuration not stated) [1-(4-chlorophenyl)-2-(3,4-dihydroquinolin-1(2H)-yl)ethyl o-tolylcarbamate (6b)] |
| 83.6 | Cc1ccc(NC(=O)OC(CN2CCCc3ccccc32)c2ccc(Cl)cc2)cc1 (configuration not stated) [1-(4-chlorophenyl)-2-(3,4-dihydroquinolin-1(2H)-yl)ethyl p-tolylcarbamate (6d)] |
| 37 | O=C(Nc1ccccc1)OC(CN1CCCc2ccccc21)c1ccc(Cl)cc1 (configuration not stated) [1-(4-chlorophenyl)-2-(3,4-dihydroquinolin-1(2H)-yl)ethyl phenylcarbamate (6a)] |
| 12.3 | CCOC(=O)c1ccc(NC(=O)OC(CN2CCCc3ccccc32)c2ccc(Cl)cc2)cc1 (configuration not stated) [Ethyl4-((1-(4-chlorophenyl)-2-(3,4-dihydroquinolin-1(2H)-yl)ethoxy)carbonylamino) benzoate (6l)] |
| 39 | CCOC(=O)c1ccccc1NC(=O)OC(CN1CCCc2ccccc21)c1ccc(Cl)cc1 (configuration not stated) [Ethyl 2-((1-(4-chlorophenyl)-2-(3,4-dihydroquinolin-1(2H)-yl)ethoxy)carbonylamino) benzoate (6k)] |
